For 26 molecules, Emax and IC50 results are on record in US11530220B2, “Substituted imidazo[1,5-a]pyrazines and [1,2,4]triazolo[4,3-a]pyrazines for the modulation of AhR” (IDEAYA BIOSCIENCES, INC., priority 2018, dated 2022).

Like-named read-outs stand apart in the source and are kept apart here.

The assay concerns the target T1, hAhR (Homo sapiens, UniProt P35869).
T1 construct: Stably integrated DRE-luciferase cell lines were generated by transducing the both cell lines with Cignal XRE luciferase reporter (Qiagen) lentiviral particles; endogenous in cells; host or cells: HEPG2 (human hepatoma) with stably integrated XRE/DRE-luciferase reporter
T1 sequence (P35869 11-848): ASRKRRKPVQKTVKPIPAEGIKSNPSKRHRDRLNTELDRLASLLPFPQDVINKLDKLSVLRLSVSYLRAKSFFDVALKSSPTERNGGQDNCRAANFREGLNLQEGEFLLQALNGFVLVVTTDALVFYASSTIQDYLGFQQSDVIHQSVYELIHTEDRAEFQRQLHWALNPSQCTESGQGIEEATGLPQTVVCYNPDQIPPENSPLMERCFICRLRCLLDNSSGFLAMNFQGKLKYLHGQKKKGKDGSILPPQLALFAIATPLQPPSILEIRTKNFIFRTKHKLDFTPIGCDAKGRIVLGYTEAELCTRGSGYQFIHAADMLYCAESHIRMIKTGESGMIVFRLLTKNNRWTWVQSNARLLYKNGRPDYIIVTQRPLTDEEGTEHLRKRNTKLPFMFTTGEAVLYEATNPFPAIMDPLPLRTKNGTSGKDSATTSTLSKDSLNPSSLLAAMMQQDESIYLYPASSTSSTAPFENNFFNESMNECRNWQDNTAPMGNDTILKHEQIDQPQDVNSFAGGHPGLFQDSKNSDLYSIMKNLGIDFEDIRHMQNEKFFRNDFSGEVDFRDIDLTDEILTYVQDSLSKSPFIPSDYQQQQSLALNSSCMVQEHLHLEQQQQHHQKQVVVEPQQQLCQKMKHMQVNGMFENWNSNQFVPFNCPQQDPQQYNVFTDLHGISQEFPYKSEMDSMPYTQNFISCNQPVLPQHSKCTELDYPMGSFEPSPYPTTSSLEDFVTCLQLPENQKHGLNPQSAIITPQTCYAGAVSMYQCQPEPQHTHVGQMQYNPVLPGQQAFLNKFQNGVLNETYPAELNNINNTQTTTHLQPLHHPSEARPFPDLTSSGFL
Put plainly: DRE-luciferase transcriptional assay, antagonist mode, in HEPG2 DRE-Luc cells stimulated with TCDD. In kind it is cell-based. The conditions noted are these: for Emax: read-out: HEPG2 % Max Inhibition; for IC50: relative IC50, read-out: IC50 hAhR (antagonist mode). The method, then: HEPG2 and HEPA1C1C7 cells were maintained in MEM and αMEM without nucleosides supplemented with 10% heat inactivated FBS respectively. Stably integrated DRE-luciferase cell lines were generated by transducing the both cell lines with Cignal XRE luciferase reporter (Qiagen) lentiviral particles according to the manufacturer protocol. For both cell lines stably integrated reporter cell lines were selected for the presence of 2 μg/mL puromycin. Following selection of stably integrated cell line pools, clonal cell lines were isolated by limiting dilution in 96-well plates. Transcriptional assays were performed by seeding 100 μL of cells at a density of 250,000 or 100,000 cells/mL, for HEPG2 and HEPA1C1C7 DRE-Luc cells respectively, into 96-well cell culture plates in OptiMEM supplemented with 0.5% heat inactivated FBS and allowed to attach overnight. For antagonist assays, the compounds were added in a semi-log dose response using a D300e Digital Dispenser (Tecan) followed normalization with vehicle (DMSO). Immediately following compound addition […] of 2,3,7,8-Tetrachlorodibenzo-p-dioxin (TCDD) was added to the cells to a final concentration of 3 nM or 0.3 nM for the HEPG2 and HEPA1C1C7 DRE-Luc cells respectively. Following 24 h incubation the medium was removed and the cells were lysed in 25 μL of Reporter Lysis Buffer (Promega). Firefly luciferase activity was measured immediately following the addition of 50 μL Luciferase Assay Reagent (Promega). The percent maximal activity for each point was determined using the following equation: 100−(RLUsample−RLUvehicle−TCDD)/(RLUvehicle+TCDD RLUvehicle−TCDD)*100. The relative IC50, defined as the compound concentration required to reduce the TCDD induced response between the top and bottom plateau of each individual dose response curve by half, for each compound was determined using Prism 7 (GraphPad Software).

Setting [1] is: HEPG2 DRE-Luc cells, 3 nM TCDD, 24 h incubation.

For the molecule `Cc1cncc(-c2cn3c(C(C)C)nnc3c(NCCc3ccc(O)cc3)n2)c1` [Example 1], under setting [1], the Emax came to 100% and the IC50 was 500 to 1000 nM.

`CC(C)c1nnc2c(NCCc3ccc(O)cc3)nc(-c3cncc(C#N)c3)cn12` [Example 2, 5-(8-{[2-(4-hydroxyphenyl)ethyl]amino}-3-isopropyl-4-hydro-1,2,4-triazolo[4,3-a]pyrazin-6-yl)pyridine-3-carbonitrile]: under setting [1], the Emax came out at 100% and the IC50 was below 200 nM.

For the molecule `Cc1cncc(-c2cn3c(C(C)C)nnc3c(NCCc3c[nH]c4ccccc34)n2)c1` [Example 3], under setting [1], the Emax turned out to be 100% and the IC50 was below 200 nM.

As to `CC(C)c1nnc2c(NCCc3c[nH]c4ccccc34)nc(-c3cncc(C#N)c3)cn12` [Example 4, 5-{8-[(2-indol-3-ylethyl)amino]-3-isopropyl-4-hydro-1,2,4-triazolo[4,3-a]pyrazin-6-yl}pyridine-3-carbonitrile], under setting [1], the Emax stood at 100% and the half-inhibitory concentration (IC50) was below 200 nM.

As to `Cc1cncc(-c2cn3c(C(C)C)cnc3c(NCCc3ccc(O)cc3)n2)c1` [Example 5], under setting [1], the Emax was 65% and the IC50 lay within 500 to 1000 nM.

For the molecule `CC(C)c1cnc2c(NCCc3ccc(O)cc3)nc(-c3cncc(C#N)c3)cn12` [Example 6, 5-(8-{[2-(4-hydroxyphenyl)ethyl]amino}-3-isopropyl-4-hydroimidazo[1,2-a]pyrazin-6-yl)pyridine-3-carbonitrile], under setting [1], the Emax stood at 100% and the IC50 lay in the range of 200 to 500 nM.

For `Cc1cncc(-c2cn3c(C(C)C)cnc3c(NCCc3c[nH]c4ccccc34)n2)c1` [Example 7, (2-indol-3-ylethyl)[6-(5-methyl(3-pyridyl))-3-isopropyl-(4-hydroimidazo[1,2-a]pyrazin-8-yl)]amine], under setting [1], the Emax is 100% and the half-inhibitory concentration (IC50) was below 200 nM.

As to `CC(C)c1cnc2c(NCCc3c[nH]c4ccccc34)nc(-c3cncc(C#N)c3)cn12` [Example 8, 5-{8-[(2-indol-3-ylethyl)amino]-3-isopropyl-4-hydroimidazo[1,5-a]pyrazin-6-yl}pyridine-3-carbonitrile], under setting [1], the Emax worked out at 100% and the IC50 is below 200 nM.

Take `Cc1cncc(-c2cn3c(C(C)C)ncc3c(NCCc3c[nH]c4ccccc34)n2)c1` [Example 9]: under setting [1], the Emax was 100% and the IC50 is 200 to 500 nM.

As for `Cc1cncc(-c2cn3c(C(C)C)ncc3c(NCCc3ccc(O)cc3)n2)c1` [Example 10, 4-(2-{[6-(5-methyl(3-pyridyl))-3-isopropyl-4-hydroimidazo[1,5-a]pyrazin-8-yl]amino}ethyl)phenol], the IC50 under setting [1] is 1000 to 10000 nM. In addition, the Emax (HepG2, 24 h) was 47%.

In the case of `Cc1nccn1-c1cn2c(C(C)C)cnc2c(NCCc2c[nH]c3c(F)cccc23)n1` [Example 11, [2-(7-fluoroindol-3-yl)ethyl][3-isopropyl-6-(2-methylimidazolyl)(4-hydroimidazo[1,2-a]pyrazin-8-yl)]amine], under setting [1], the IC50 was below 200 nM. Moreover, the Emax (HepG2, 24 h) stood at 100%.

On to `Cc1nccn1-c1cn2c(C(C)C)cnc2c(NCCc2c[nH]c3cc(F)ccc23)n1` [Example 12, [2-(6-fluoroindol-3-yl)ethyl][3-isopropyl-6-(2-methylimidazolyl)(4-hydroimidazo[1,2-a]pyrazin-8-yl)]amine], for which, under setting [1], the Emax was 100% and the IC50 is below 200 nM.

As to `Cc1nccn1-c1cn2c(C(C)C)cnc2c(NCCc2c[nH]c3ccc(F)cc23)n1` [Example 13, [2-(5-fluoroindol-3-yl)ethyl][3-isopropyl-6-(2-methylimidazolyl)(4-hydroimidazo[1,2-a]-pyrazin-8-yl)]amine], the Emax under setting [1] amounted to 99%.

For `Cc1nccn1-c1cn2c(C(C)C)cnc2c(NCCc2c[nH]c3cccc(F)c23)n1` [Example 14, [2-(4-fluoroindol-3-yl)ethyl][3-isopropyl-6-(2-methylimidazolyl)(4-hydroimidazo[1,2-a]-pyrazin-8-yl)]amine], under setting [1], the Emax worked out at 100% and the 50% inhibitory concentration (IC50) is below 200 nM.

For `Cc1nccn1-c1cn2c(C(C)C)cnc2c(NCCc2c[nH]c3cccnc23)n1` [Example 15, [3-isopropyl-6-(2-methylimidazolyl)(4-hydroimidazo[1,2-a]pyrazin-8-yl)](2-pyrrolo[3,2-b]pyridin-3-ylethyl)amine], under setting [1], the Emax was 73% and the IC50 lay in the range of 1000 to 10000 nM.

Consider `Cc1nccn1-c1cn2c(C(C)C)cnc2c(NCCc2c[nH]c3ncccc23)n1` [Example 16, [3-isopropyl-6-(2-methylimidazolyl)(4-hydroimidazo[1,2-a]pyrazin-8-yl)](2-pyrrolo[2,3-b]pyridin-3-ylethyl)amine], for which, under setting [1], the Emax turned out to be 83% and the half-inhibitory concentration (IC50) fell in the range of 1000 to 10000 nM.

`Cc1nccn1-c1cn2c(C(C)C)cnc2c(N[C@H](C)Cc2c[nH]c3ccccc23)n1` [Example 17a]: under setting [1], the Emax is 100% and the concentration for half-maximal inhibition (IC50) is 500 to 1000 nM.

As for `Cc1nccn1-c1cn2c(C(C)C)cnc2c(N[C@@H](C)Cc2c[nH]c3ccccc23)n1` [Example 17b, ((1S)-2-indol-3-yl-isopropyl)[3-isopropyl-6-(2-methylimidazolyl)(4-hydroimidazo[1,2-a]-pyrazin-8-yl)]amine], under setting [1], the Emax was 81.3% and the IC50 was 1000 to 10000 nM.

On to `Cc1nccn1-c1cn2c(C(C)C)cnc2c(NCCc2cc[nH]c2)n1` [Example 18, [3-isopropyl-6-(2-methylimidazolyl)(4-hydroimidazo[1,2-a]pyrazin-8-yl)](2-pyrrol-3-ylethyl)amine], for which, under setting [1], the Emax came to 77% and the concentration for half-maximal inhibition (IC50) is 1000 to 10000 nM.

Take `CC(C)c1cnc2c(NCCn3c(=O)[nH]c4ccccc43)nc(-c3cncc(F)c3)cn12` [Example 19]: under setting [1], the Emax worked out at 100% and the concentration for half-maximal inhibition (IC50) was below 200 nM.

As for `CC(C)c1cnc2c(NCCc3n[nH]c4ccccc34)nc(-c3cncc(F)c3)cn12` [Example 20], under setting [1], the Emax stood at 100% and the concentration for half-maximal inhibition (IC50) was below 200 nM.

Turning to `CC(CO)c1cnc2c(NCCc3c[nH]c4cccc(F)c34)nc(-c3cncc(F)c3)cn12` (stereo not drawn) [Example 21, 2-(6-(5-fluoro-(3-pyridyl))-8-{[2-(4-fluoroindol-3-yl)ethyl]amino}-4-hydroimidazo[1,2-a]pyrazin-3-yl)propan-1-ol], the IC50 under setting [1] is below 200 nM. The Emax (HepG2, 24 h) came out at 100%.

As to `Cc1nccn1-c1cn2c(C(C)C)cnc2c(NCCc2c[nH]c3cc(F)cc(F)c23)n1` [Example 22, [2-(4,6-difluoroindol-3-yl)ethyl][3-isopropyl-6-(2-methylimidazolyl)(4-hydroimidazo[1,2-a]pyrazin-8-yl)]amine], under setting [1], the Emax is 100% and the IC50 was below 200 nM.

With `Cc1nccn1-c1cn2c(C(C)C)cnc2c(NCc2cccc(C(N)=O)c2)n1` [Example 23, 3-({[3-isopropyl-6-(2-methylimidazolyl)-4-hydroimidazo[1,2-a]pyrazin-8-yl]amino}-methyl)benzamide], under setting [1], the Emax was found to be 12% and the half-maximal inhibitory concentration (IC50) lay in the range of 1000 to 10000 nM.

In the case of `CC(C)c1cnc2c(NCCc3c[nH]c4cccc(F)c34)nc(-c3cncc(F)c3)cn12` [Example 24], under setting [1], the IC50 is below 200 nM. Also, the Emax (HepG2, 24 h) amounted to 100%.

With `CC(C)c1cnc2c(NCCc3c[nH]c4cccc(F)c34)nc(-c3cnn(C)c3)cn12` [Example 25, [2-(4-fluoroindol-3-yl)ethyl][3-isopropyl-6-(1-methylpyrazol-4-yl)(4-hydroimidazo[1,2-a]-pyrazin-8-yl)]amine], under setting [1], the Emax amounted to 100% and the concentration for half-maximal inhibition (IC50) is below 200 nM.

The term IC50 denotes the point on the concentration scale where inhibition reaches its midpoint.
